Data from patent publication US20230129258A1, “HETEROTANDEM BICYCLIC PEPTIDE COMPLEXES” (BicycleTx Limited, priority 2019, published 2023).
Starred links: 1 amine or outer side, 2 acyl side, 3 side chain; linkers in the order of their positions; H or OH if unused. Positions of bridges follow the written chain, without caps; N, C: chain ends. Non-standard residues stand in square brackets, D forms with d. Chains are numbered I, II in the order given. X1 = O=C(CCOCCOCCOCCN(CCOCCOCCOCCn1cc(CCC(=O)[*:2])nn1)CCOCCOCCOCCn1cc(CCC(=O)[*:3])nn1)[*:1]; TATA = O=C(CC[*:1])N1CN(C(=O)CC[*:2])CN(C(=O)CC[*:3])C1; d1Nal = N[C@H](Cc1cccc2ccccc12)C(=O)O; Hyp = O=C(O)[C@@H]1C[C@@H](O)CN1; hArg = N=C(N)NCCCC[C@H](N)C(=O)O; tBuAla = CC(C)(C)C[C@H](N)C(=O)O; Nle = CCCC[C@H](N)C(=O)O

What was measured:
MC38 #13 tumors = experiment: Anti-tumor activity in syngeneic Nectin-4 overexpressing MC38 tumor model (MC38 #13); type: in vivo, C57BL/6J-hCD137 mice; conditions: for complete tumor responses: day 15; for complete responders: day 52, IV
Experimental: 6-8 weeks old C57BL/6J-hCD137 female mice were inoculated in the flank with 1×10^6 syngeneic Nectin-4 overexpressing MC38 cells (MC38 #13). When tumors reached 72 mm^3 size on average, mice were randomized to receive vehicle or BCY11863 (intraperitoneal administration). BCY11863 was administered (n=6 mice/treatment cohort) at either 1 mg/kg or 10 mg/kg either daily (QD) or every three days (Q3D). QD dosed mice received 16 doses of BCY11863 and Q3D dosed mice received […] of BCY11863. Tumor growth was monitored by caliper measurements until day 69 after treatment initiation. […] By day 48, 22 out of 24 BCY11863-treated animals had responded to the treatment completely and had no palpable tumors remaining.
6-8 week old female C57BL/6J-hCD137 mice [B-hTNFRSF9(CD137) mice; Biocytogen] were implanted subcutaneously with 1×10^6 MC38 #13 (MC38 cells engineered to overexpress murine Nectin-4) cells. Mice were randomized into treatment groups (n=6/cohort) when average tumor volumes reached around 95 mm^3 and were treated with a weekly dose of vehicle (25 mM histidine, 10% sucrose, pH7) or 10 mg/kg BCY11863 with two different dosing schedules for two dosing cycles (5 mg/kg BCY11863 at 0 h and 24 h on DO and D7, or 10 mg/kg at 0 h on DO and D7). All treatments were administered intravenously (IV). Tumor growth was monitored until Day 15 from treatment initiation.
At 3 weekly doses of 3, 10 and 30 mg/kg with dose fractionated weekly, biweekly and daily 6-8 week old female C57BL/6J-hCD137 mice [B-hTNFRSF9(CD137) mice; Biocytogen] were implanted subcutaneously with 1×10^6 MC38 #13 (MC38 cells engineered to overexpress murine Nectin-4) cells. Mice were randomized into treatment groups (n=6/cohort) when average tumor volumes reached around 107 mm^3 and were treated with 21 daily doses of vehicle (25 mM histidine, 10% sucrose, pH7). BCY11863 treatment was done at three different total dose levels (3, 10 and 30 mg/kg total weekly dose) fractionated in three different schedules (QD: daily; BIW: twice a week or QW: weekly). Different BCY11863 treatment cohorts received either 21 daily doses (0.43, 1.4 or 4.3 mg/kg), 6 twice weekly doses (1.5, 5 or 15 mg/kg) or 3 weekly doses (3, 10 or 30 mg/kg). All treatments were administered intravenously (IV). Tumor growth was monitored until tumor reached volumes over 2000 mm^3 or until 31 days after treatment initiation. Complete responders (animals with no palpable tumors) were followed until D52.

human EphA2 = human EphA2 (Homo sapiens, UniProt P29317); experiment: SPR (Biacore) binding to immobilized human EphA2
Experimental: Biacore experiments were performed to determine ka (M^−1s^−1), kd (s^−1), KD (nM) values of BCY13272 binding to human EphA2 protein.
EphA2 were biotinylated with EZ-Link™ Sulfo-NHS-LC-Biotin for 1 hour in 4 mM sodium acetate, 100 mM NaCl, pH 5.4 with a 3× molar excess of biotin over protein. The degree of labelling was determined using a Fluorescence Biotin Quantification Kit (Thermo) after dialysis of the reaction mixture into PBS. For analysis of peptide binding, a Biacore T200 instrument was used with a XanTec CMD500D chip. Streptavidin was immobilized on the chip using standard amine-coupling chemistry at 25° C. with HBS-N (10 mM HEPES, 0.15 M NaCl, pH 7.4) as the running buffer. Briefly, the carboxymethyl dextran surface was activated with a 7 min injection of a 1:1 ratio of 0.4 M 1-ethyl-3-(3-dimethylaminopropyl) carbodiimide hydrochloride (EDC)/0.1 M N-hydroxy succinimide (NHS) at a flow rate of 10 μl/min. For capture of streptavidin, the protein was diluted to 0.2 mg/ml in 10 mM sodium acetate (pH 4.5) and captured by injecting 120 μl onto the activated chip surface. Residual activated groups were blocked with a 7 min injection of 1 M ethanolamine (pH 8.5):HBS-N (1:1). Buffer was changed to PBS/0.05% Tween 20 and biotinylated EphA2 was captured to a level of 500-1500 RU using a dilution of protein to 0.2 μM in buffer. […]

Chain of human EphA2 (P29317 24-976): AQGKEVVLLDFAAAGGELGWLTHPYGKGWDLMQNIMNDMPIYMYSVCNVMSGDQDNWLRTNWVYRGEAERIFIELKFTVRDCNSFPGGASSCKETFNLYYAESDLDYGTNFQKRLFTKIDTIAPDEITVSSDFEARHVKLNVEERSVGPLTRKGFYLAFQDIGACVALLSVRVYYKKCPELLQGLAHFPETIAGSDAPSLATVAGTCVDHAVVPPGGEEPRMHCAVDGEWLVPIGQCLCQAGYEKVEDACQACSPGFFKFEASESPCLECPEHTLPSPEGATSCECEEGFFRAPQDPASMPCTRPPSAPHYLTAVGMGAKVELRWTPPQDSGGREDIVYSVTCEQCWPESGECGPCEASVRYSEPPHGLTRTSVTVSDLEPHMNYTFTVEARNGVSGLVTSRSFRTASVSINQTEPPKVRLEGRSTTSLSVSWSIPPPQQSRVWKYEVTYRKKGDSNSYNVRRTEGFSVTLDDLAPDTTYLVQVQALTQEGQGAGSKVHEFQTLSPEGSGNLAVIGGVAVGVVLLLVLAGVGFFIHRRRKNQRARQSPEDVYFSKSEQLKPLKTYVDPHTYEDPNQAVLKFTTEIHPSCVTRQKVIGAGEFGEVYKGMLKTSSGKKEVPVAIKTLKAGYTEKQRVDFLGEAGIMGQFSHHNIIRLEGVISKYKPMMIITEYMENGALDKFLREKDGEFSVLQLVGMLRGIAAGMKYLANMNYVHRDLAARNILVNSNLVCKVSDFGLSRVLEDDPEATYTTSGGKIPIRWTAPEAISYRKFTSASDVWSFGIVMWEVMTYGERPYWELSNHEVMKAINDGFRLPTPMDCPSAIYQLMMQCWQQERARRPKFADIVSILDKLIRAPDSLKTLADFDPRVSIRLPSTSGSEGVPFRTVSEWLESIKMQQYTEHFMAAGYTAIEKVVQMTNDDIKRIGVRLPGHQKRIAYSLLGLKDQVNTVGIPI

| Compound | tumor growth (MC38 #13 tumors; 1 or 10 mg/kg, QD or Q3D, ip, p<0.05 vs vehicle, 2 cohorts by day 7, all by day 14) | animals responded completely, no palpable tumors (MC38 #13 tumors; by day 48, all cohorts, 1 or 10 mg/kg, QD or Q3D, ip) | complete tumor responses (MC38 #13 tumors; 5 mg/kg at 0 h and 24 h on D0 and D7, IV) | complete tumor responses (MC38 #13 tumors; 10 mg/kg at 0 h on D0 and D7, IV) | complete responders (MC38 #13 tumors; 5 mg/kg BIW) | complete responders (MC38 #13 tumors; BIW (1.5, 5 or 15 mg/kg)) | complete responders (MC38 #13 tumors; QD (0.43, 1.4 or 4.3 mg/kg)) | complete responders (MC38 #13 tumors; QW (3, 10 or 30 mg/kg)) | Kd (human EphA2) |
| --- | --- | --- | --- | --- | --- | --- | --- | --- | --- |
| CCCC[C@@H]1NC(=O)[C@H](Cc2ccc(O)cc2)NC(=O)[C@@H]2CCCN2C(=O)[C@H](CC(=O)O)NC(=O)[C@H](C)NC(=O)[C@H](Cc2ccccc2)NC(=O)[C@@H]2CSCCC(=O)N3CN(CN(C3)C(=O)CCSC[C@@H](C(=O)N[C@@H](C)C(N)=O)NC1=O)C(=O)CCSC[C@H](NC(C)=O)C(=O)N[C@@H](CC(C)(C)C)C(=O)N1CCC[C@H]1C(=O)N[C@@H](CCC(=O)O)C(=O)N[C@H](CCCCNC(=O)CCc1cn(CCOCCOCCOCCN(CCOCCOCCOCCC(=O)N[C@H]3CSCCC(=O)N4CN5CN(C4)C(=O)CCSC[C@H](NC(=O)[C@@H](CC(=O)O)NC(=O)[C@H](Cc4cccc6ccccc46)NC(=O)[C@@H]4CCCN4C3=O)C(=O)N[C@@H](CCSC)C(=O)N[C@@H](CCCCNC(=N)N)C(=O)N[C@@H](CC(=O)O)C(=O)N[C@@H](Cc3c[nH]c4ccccc34)C(=O)N[C@@H](CO)C(=O)N[C@@H]([C@@H](C)O)C(=O)N3CCC[C@H]3C(=O)N3C[C@H](O)C[C@H]3C(=O)N[C@@H](Cc3c[nH]c4ccccc34)C(=O)N[C@H](C(N)=O)CSCCC5=O)CCOCCOCCOCCn3cc(CCC(=O)NCCCC[C@H]4NC(=O)[C@H](CCC(=O)O)NC(=O)[C@@H]5CCCN5C(=O)[C@H](CC(C)(C)C)NC(=O)[C@@H](NC(C)=O)CSCCC(=O)N5CN6CN(C5)C(=O)CCSC[C@H](NC(=O)[C@H](Cc5ccc(O)cc5)NC(=O)[C@@H]5CCCN5C4=O)C(=O)N[C@@H](Cc4ccccc4)C(=O)N[C@@H](C)C(=O)N[C@@H](CC(=O)O)C(=O)N4CCC[C@H]4C(=O)N[C@@H](Cc4ccc(O)cc4)C(=O)N[C@@H](CCCC)C(=O)N[C@H](C(=O)N[C@@H](C)C(N)=O)CSCCC6=O)nn3)nn1)C(=O)N1CCC[C@H]1C(=O)N[C@@H](Cc1ccc(O)cc1)C(=O)N2 [BCY11863] | significant reduction | 22 out of 24 | 4 out of 6 | one out of 6 | 6/6 | 15/18 | 12/18 | 6/18 |  |
| I: A[hArg]DC[Hyp]LVNPLCLEP[d1Nal]WTC-NH2 / II: Ac-C[tBuAla]PE[dK]PYCFADPY[Nle]CA-NH2 / III: Ac-C[tBuAla]PE[dK]PYCFADPY[Nle]CA-NH2 (linker I:4-I:11-I:18, II:1-II:8-II:15, III:1-III:8-III:15 via TATA; linker I:N-II:5-III:5 via X1) [BCY13272] |  |  |  |  |  |  |  |  | 2 nM |
